Experimental findings from patent US4214001A, “1-(4-Acylamino-phenyl)-2-amino-ethanols and salts thereof” (Boehringer Ingelheim GmbH, priority 1977, dated 1980) are described below.

In data set [1] the test system is bronchospasms induced by acetylcholine. Briefly: Bronchospasmolytic activity (method of Konzett et al.), acetylcholine-induced bronchospasm. Type of data set: in vivo. Particulars: anesthetized guinea pigs; for ED50: Cavia porcellus, dose which produces a 50% reduction of the bronchospasm, acetylcholine 20 mgm/kg i.v. The procedure: The compounds were tested on adult guinea pigs of both sexes by the standard pharmacological test method of Konzett et al., Naunyn-Schmiedeberg's Arch. Exp. Path. Pharmakol. 195, 71-74 (1940). The test animals were anesthetized with 1.5 gm/kg urethane i.p. The bronchospasms were induced by injection of 20 mgm/kg of acetylcholine i.v. The test compound was administered intravenously or intraduodenally. From the average values of maximum decrease in bronchoconstriction obtained at various dosage levels, an ED50 i.e. the dose which produces a 50% reduction of the bronchospasm, with confidence limits according to Fieller, Quart. J. Pharm. Phamacol. 17, 117-123 (1944), was calculated by linear regression analysis according to Linder, Statistische Methoden, 4th Ed., 148-162, published by Birkhauser, Basel, Switzerland (1964).

Data set [2] can be described thus: Acute toxicity, intravenous, LD50. The following applies: mouse, in vivo, i.v., mice, animals which died within 14 days. The procedure:
The intravenous toxicity was determined on laboratory mice of both sexes having an average body weight of 20 gm. From the number of animals which died within 14 days at various dosage levels, the median lethal dose (LD50) was calculated by the method of Litchfield and Wilcoxon, supra.

The subject of data set [3] is asthma attack induced by acetylcholine aerosol. Kind of data set: Antiasthmatic activity (method of Kallos et al.), acetylcholine aerosol. It is filed as in vivo, guinea pigs. As for the experimental part:
The standard test method of Kallos et al., Acta med. scand. 91, 292 (1937) was used. The test compound was orally administered to adult guinea pigs which were then exposed to an acetylcholine aerosol steam produced with an aerosol nozzle at 1.5 atmospheres gauge from a 0.4% solution of acetylcholine in an aqueous 0.9% sodium chloride solution. A more than three-fold prolongation of the time until onset of the asthma attack in comparision to untreated controls was evaluated as absolute protection. From the number of animals which were protected at various dosages, an ED50, i.e. the dose which gives absolute protection in 50% of the animals, was calculated by the method of Litchfield and Wilcoxon, J. Pahrmacol. Exper. Ther. 96, 99 (1949).

The mark [4] stands for this setting: iv, read-out: ED50 after i.v. administration.
The mark [5] stands for this setting: i.d. (intraduodenal), read-out: ED50 after i.d. administration.

Structures are written as SMILES. Like-named read-outs stand apart in the source and are kept apart here.

With `CCOC(=O)Nc1c(F)cc(C(O)CNC(C)(C)C)cc1Cl.Cl` (stereo not drawn) [A, 1-(4'-ethoxycarbonylamino-3'-chloro-5'-fluoro-phenyl)-2-tert.-butylamino-ethanol hydrochloride], the figures for the ED50 in data set [1] (setting [4]) and in data set [1] (setting [5]) were 0.0307 mg/kg and 0.0323 mg/kg, respectively. For the same compound, in data set [1], the “t/2 after i.v. administration” value is 60 min. In data set [2], this compound returned an LD50 at 336 h of 70.2 mg/kg.

`CCOC(=O)Nc1c(F)cc(C(O)CNC(C)(C)C)cc1C#N.Cl` (stereo not drawn) [B, 1-(4'-ethoxycarbonylamino-3'-cyano-5'-fluoro-phenyl)-2-tert.-butylamino-ethanol hydrochloride]: the ED50 was 0.0056 mg/kg in data set [1] (setting [4]); 0.007 mg/kg in data set [1] (setting [5]); 0.0143 mg/kg in data set [3] (Cavia porcellus, po, dose which gives absolute protection in 50% of the animals (more than three-fold prolongation of time until onset of asthma attack), acetylcholine aerosol 0.4%). The “t/2 after i.v. administration” value in data set [1] is 70 min. In data set [2], this compound came in with an LD50 at 336 h of 97.5 mg/kg. In data set [3] (p.o., guinea pigs), this compound showed a t/2 of 150 min. Also, in data set [3] (p.o., guinea pigs, time of maximum effect), the “Max. effect after min.” value lay in the range of 15 to 30 min.

Regarding `CCOC(=O)Nc1ccc(C(O)CNC(C)(C)C)cc1C#N.Cl` (stereo not drawn) [C, 1-(4'-ethoxycarbonylamino-3'-cyano-phenyl)-2-tert. butylamino-ethanol hydrochloride], the ED50 in data set [1] (setting [4]) was 0.0235 mg/kg; in data set [1] (setting [5]) it was 0.0087 mg/kg. In addition, the “t/2 after i.v. administration” value in data set [1] is given as greater than 50 min. This compound yielded a median lethal dose (LD50) at 336 h in data set [2] of 67.2 mg/kg.

On to `CCOC(=O)Nc1ccc(C(O)CNC(C)C)cc1C#N.Cl` (stereo not drawn) [D, 1-(4'-ethoxycarbonylamino-3'-cyano-phenyl)-2-isopropylamino-ethanol hydrochloride], for which the ED50 in data set [1] (setting [4]) stood at 0.064 mg/kg. The “t/2 after i.v. administration” value in data set [1] is reported as greater than 50 min. For the same compound, the LD50 at 336 h in data set [2] is 61.9 mg/kg.

As a reminder, the LD50 is the dose at which mortality reaches 50%. A higher LD50 goes with lower toxicity.
